The values below come from patent US4609645A, “Macrolide antibiotics, pharmaceutical compositions and methods of use” (priority 1983, dated 1986).

Each structure is given as a SMILES string. In brackets after ≈: the same amount, converted by molar mass. Like-named read-outs stand apart in the source and are kept apart here.

In one data set the test system is B. cereus IFO 3001. Kind of data set: Minimum inhibitory concentration (MIC), antimicrobial activity. The conditions noted are these: Bacillus cereus. It counts as cell-based. As for the experimental part: (§1) The antimicrobial activity of the PTL-448 derivatives of the invention is illustrated in Table 3, which is a summary of the results of a number of tests carried out to determine minimum inhibitory concentrations (MIC) of the derivatives against a number of typical bacteria. Comparative results for Spiramycin I (SPM I) and III (SPM III) are also given. Tests were carried out using heart infusion agar media (pH 7 at 37° C., after about 20 hours).

For data set [1], the system named is Bacillus subtilis PCI 219. The description is as above. It counts as cell-based. As for the experimental part: as §1
The subject of a further data set is E. coli N-33. The description is as above. It counts as cell-based. The conditions noted are these: Escherichia coli. As for the experimental part: as §1
Data set [2] has as its system Klebsiella pneumoniae ATCC 10031. Described as above. It counts as cell-based. As for the experimental part:
as §1

Data set [3] concerns Micrococcus luteus ATCC 9341. The description is as above. It counts as cell-based. On the procedure:
as §1

For the next data set, the system named is S. aureus FDA 209P. Described as above. It counts as cell-based. The conditions noted are these: Staphylococcus aureus, FDA209P. As for the experimental part:
as §1

For data set [4], the system named is Salmonella typhimurium KB 20. The description is as above. It counts as cell-based. The conditions noted are these: Salmonella enterica. On the procedure: as §1
The subject of data set [5] is Staphylococcus aureus ATCC 6538P. The data set is described as above. It counts as cell-based. The conditions noted are these: ATCC6538P. As for the experimental part:
as §1

Data set [6] has as its system Streptococcus pneumoniae III KB 165. Described as above. It counts as cell-based. On the procedure:
as §1

The subject of the next data set is S. pyogenes KB 166. Described as above. It counts as cell-based. As to conditions: Streptococcus pyogenes, KB166, heart infusion agar, pH 7, 37° C., about 20 hours. As for the experimental part: as §1
The test system of data set [7] is Acholeplasma laidlawii PG-8. The data set is described as follows: Activity against Mycoplasma, paper disk inhibition zone. The conditions noted are these: paper disk 8 mm in diameter, 37° C., about 48 hours. It counts as cell-based. As for the experimental part: (§2) In addition, the activity of the PTL-448 derivatives against Mycoplasma was examined by conventional methods (paper disk 8 mm in diameter, 37° C., about 48 hours).

A short description of another data set: Toxicity tests in mice. It counts as in vivo. As to conditions: 100 mg/kg i.p., after 1 month of treatment.
A short description of another data set: Solubility. It counts as physicochemical.
In data set [8] the test system is Mycoplasma gallisepticum KP-13. The data set is described as follows: Activity against Mycoplasma, paper disk inhibition zone. It counts as cell-based. The conditions noted are these: paper disk 8 mm in diameter, 37° C., about 48 hours. As for the experimental part: as §2
Setting [9] is: IFO3001, B. cereus IFO 3001, heart infusion agar, pH 7, 37° C., about 20 hours, read-out: MIC.
Setting [10] is: PCI219, Bacillus subtilis PCI 219, heart infusion agar, pH 7, 37° C., about 20 hours, read-out: MIC.
Setting [11] is: N33, E. coli N-33, heart infusion agar, pH 7, 37° C., about 20 hours, read-out: MIC.
[12] abbreviates: ATCC10031, Klebsiella pneumoniae ATCC 10031, heart infusion agar, pH 7, 37° C., about 20 hours, read-out: MIC.
Setting [13] is: ATCC9341, Micrococcus luteus ATCC 9341, heart infusion agar, pH 7, 37° C., about 20 hours, read-out: MIC.
Where [14] appears, read: S. aureus FDA 209P, heart infusion agar, pH 7, 37° C., about 20 hours, read-out: MIC.
[15] abbreviates: Salmonella typhimurium KB 20, heart infusion agar, pH 7, 37° C., about 20 hours, read-out: MIC.
Setting [16] is: Staphylococcus aureus ATCC 6538P, heart infusion agar, pH 7, 37° C., about 20 hours, read-out: MIC.
Setting [17] is: IIIKB165, Streptococcus pneumoniae III KB 165, heart infusion agar, pH 7, 37° C., about 20 hours, read-out: MIC.
Setting [18] is: methanol, ethanol, acetone, ethyl acetate, chloroform, benzene.

As to `COC1C(O)CC(=O)OC(C)CC=CC=CC(OC2CCC(N(C)C)C(C)O2)C(C)CC(CC=O)C1OC1OC(C)C(OC2CC(C)(O)C(O)C(C)O2)C(N(C)C)C1O` (stereo not shown) [SPM I, Spiramycin I, reference compound], the MIC in the data set on B. cereus IFO 3001 (IFO3001, 20 h, pH 7) is 3.12 µg/mL (≈ 3.7 µM); in data set [1] (Bacillus subtilis, PCI219, 20 h, pH 7), 1.56 µg/mL (≈ 1.85 µM); against E. coli N-33 (N33, 20 h, pH 7) it was 1.56 µg/mL (≈ 1.85 µM); in data set [2] (Klebsiella pneumoniae, ATCC10031, 20 h, pH 7), above 100 µg/mL; in [3] (Micrococcus luteus, ATCC9341, 20 h, pH 7), 0.4 µg/mL (≈ 0.474 µM); against S. aureus FDA 209P (20 h, pH 7), 6.25 µg/mL (≈ 7.41 µM). In addition, the MIC in data set [4] (TYPHIMURIUM, 20 h, pH 7) was above 100 µg/mL; in [5] (Staphylococcus aureus, 20 h, pH 7), 6.25 µg/mL (≈ 7.41 µM); in data set [6] (Streptococcus pneumoniae, IIIKB165, 20 h, pH 7) it was 0.4 µg/mL (≈ 0.474 µM).
As to `CCC1OC(=O)CC(O)C(C)C(OC2OC(C)C(O)C(N(C)C)C2O)C(CC=O)CC(C)C(OC2CCC(N(C)C)C(C)O2)C=CC(C)=CC1C` (stereo not shown) [PTL-448-D], the MIC with B. cereus IFO 3001 (setting [9]) was 1.56 µg/mL (≈ 2.15 µM); in [1] (setting [10]) it was 1.56 µg/mL (≈ 2.15 µM); in the data set with E. coli N-33 (setting [11]) it was 0.2 µg/mL (≈ 0.276 µM); in data set [2] (setting [12]) it was 25 µg/mL (≈ 34.5 µM); in [3] (setting [13]), 0.2 µg/mL (≈ 0.276 µM); with S. aureus FDA 209P (setting [14]), 1.56 µg/mL (≈ 2.15 µM). Moreover, the MIC against S. pyogenes KB 166 came out at 0.4 µg/mL (≈ 0.552 µM); in data set [4] (setting [15]), 25 µg/mL (≈ 34.5 µM); in data set [5] (setting [16]), 1.56 µg/mL (≈ 2.15 µM); in data set [6] (setting [17]), 0.2 µg/mL (≈ 0.276 µM). Further, the “Diameter of Inhibition Zone” value in data set [7] is recorded as 32.0 mm. In the data set “Toxicity tests in mice”, the fatalities entry is “no fatalities occurred”. The Solubility entry is reported as “Slightly soluble” in the data set “Solubility” (ether, n-hexane); “Soluble” in “Solubility” (setting [18]); “Insoluble” in “Solubility” (water).
Consider `CCC1OC(=O)CC(OC(C)=O)C(C)C(OC2OC(C)C(OC3CC(C)(O)C(O)C(C)O3)C(N(C)C)C2O)C(CC=O)CC(C)C(OC2CCC(N(C)C)C(C)O2)C=CC(C)=CC1C` (stereo not shown) [PTL-448-A], for which the MIC is 3.12 µg/mL (≈ 3.42 µM) in the data set on B. cereus IFO 3001 (setting [9]); 1.56 µg/mL (≈ 1.71 µM) in [1] (setting [10]); 1.56 µg/mL (≈ 1.71 µM) in the data set with E. coli N-33 (setting [11]); above 100 µg/mL in [2] (setting [12]); 0.4 µg/mL (≈ 0.439 µM) in [3] (setting [13]); 6.25 µg/mL (≈ 6.86 µM) in the data set on S. aureus FDA 209P (setting [14]). For the same compound, the MIC is above 100 µg/mL in data set [4] (setting [15]), 6.25 µg/mL (≈ 6.86 µM) in data set [5] (setting [16]) and 0.4 µg/mL (≈ 0.439 µM) in data set [6] (setting [17]). The “Diameter of Inhibition Zone” value in [7] was 32.6 mm; in [8] it was 29.2 mm. Besides, in the data set “Toxicity tests in mice”, the fatalities entry is “no fatalities occurred”. For the same compound, the Solubility entry in the data set “Solubility” (ether, n-hexane) is “Slightly soluble”; in the data set “Solubility” (setting [18]) it was “Soluble”; in “Solubility” (water), “Insoluble”.
For `CCC1OC(=O)CC(O)C(C)C(OC2OC(C)C(OC3CC(C)(O)C(O)C(C)O3)C(N(C)C)C2O)C(CC=O)CC(C)C(OC2CCC(N(C)C)C(C)O2)C=CC(C)=CC1C` (stereo not shown) [PTL-448-B], the minimum inhibitory concentration (MIC) with B. cereus IFO 3001 (setting [9]) was 1.56 µg/mL (≈ 1.79 µM); in data set [1] (setting [10]), 0.78 µg/mL (≈ 0.897 µM); with E. coli N-33 (setting [11]), 0.78 µg/mL (≈ 0.897 µM); in [2] (setting [12]), above 100 µg/mL; in data set [3] (setting [13]) it was 0.4 µg/mL (≈ 0.46 µM); in the data set on S. aureus FDA 209P (setting [14]) it was 3.12 µg/mL (≈ 3.59 µM). Moreover, the MIC was 0.4 µg/mL (≈ 0.46 µM) against S. pyogenes KB 166, above 100 µg/mL in data set [4] (setting [15]), 3.12 µg/mL (≈ 3.59 µM) in data set [5] (setting [16]) and 0.4 µg/mL (≈ 0.46 µM) in [6] (setting [17]). Moreover, the “Diameter of Inhibition Zone” value in data set [7] is 31.4 mm; in data set [8], 30.1 mm. The fatalities result in the data set “Toxicity tests in mice” is “no fatalities occurred”. Besides, the Solubility entry in “Solubility” (ether, n-hexane) was “Slightly soluble”; in the data set “Solubility” (setting [18]), “Soluble”; in “Solubility” (water) it was “Insoluble”.
Consider `CCC(=O)OC1CC(=O)OC(C)CC=CC=CC(OC2CCC(N(C)C)C(C)O2)C(C)CC(CC=O)C(OC2OC(C)C(OC3CC(C)(O)C(O)C(C)O3)C(N(C)C)C2O)C1OC` (stereo not shown) [SPM III, Spiramycin III, reference compound], for which the MIC in the data set with B. cereus IFO 3001 (setting [9]) was 3.12 µg/mL (≈ 3.47 µM); in data set [1] (setting [10]), 1.56 µg/mL (≈ 1.74 µM); with E. coli N-33 (setting [11]), 1.56 µg/mL (≈ 1.74 µM); in [2] (setting [12]), above 100 µg/mL; in [3] (setting [13]), 0.4 µg/mL (≈ 0.445 µM); in the data set on S. aureus FDA 209P (setting [14]) it was 12.5 µg/mL (≈ 13.9 µM). Further, the MIC in data set [4] (setting [15]) is above 100 µg/mL; in [5] (setting [16]) it was 12.5 µg/mL (≈ 13.9 µM); in data set [6] (setting [17]), 0.4 µg/mL (≈ 0.445 µM).
`CCC1OC(=O)CC(OC(C)=O)C(C)C(OC2OC(C)C(O)C(N(C)C)C2O)C(CC=O)CC(C)C(OC2CCC(N(C)C)C(C)O2)C=CC(C)=CC1C` (stereo not shown) [PTL-448-C]: the MIC in the data set on B. cereus IFO 3001 (setting [9]) came out at 1.56 µg/mL (≈ 2.03 µM); in [1] (setting [10]), 1.56 µg/mL (≈ 2.03 µM); in the data set on E. coli N-33 (setting [11]), 0.4 µg/mL (≈ 0.522 µM); in [2] (setting [12]), 50 µg/mL (≈ 65.2 µM); in data set [3] (setting [13]) it was 0.4 µg/mL (≈ 0.522 µM); in the data set on S. aureus FDA 209P (setting [14]) it was 1.56 µg/mL (≈ 2.03 µM). Moreover, the MIC against S. pyogenes KB 166 worked out at 0.4 µg/mL (≈ 0.522 µM); in [4] (setting [15]), 50 µg/mL (≈ 65.2 µM); in data set [5] (setting [16]), 1.56 µg/mL (≈ 2.03 µM); in [6] (setting [17]), 0.2 µg/mL (≈ 0.261 µM). In addition, the “Diameter of Inhibition Zone” value in data set [7] stood at 33.1 mm. Also, the fatalities entry in the data set “Toxicity tests in mice” was “no fatalities occurred”. In addition, the Solubility result is recorded as “Slightly soluble” in the data set “Solubility” (ether, n-hexane); “Soluble” in the data set “Solubility” (setting [18]); “Insoluble” in the data set “Solubility” (water).
